Data from ChEMBL document CHEMBL3046465, “A facile synthesis of new 3,3-disubstituted phthalides of pharmacological interest” (Med Chem Res, 2013).
Converted amounts (≈) assume the structure as drawn.

Experiments:
[1] = system: Pichia kudriavzevii; experiment: Antifungal activity against Pichia kudriavzevii ATCC 6258 assessed as growth inhibition after 46 to 50 hr by optical density measurement
[2] = system: Candida albicans; experiment: Antifungal activity against Candida albicans ATCC 90028 assessed as growth inhibition after 46 to 50 hr by CLSI broth dilution method; format: functional
[3] = system: Staphylococcus aureus; experiment: Antibacterial activity against methicillin-resistant Staphylococcus aureus ATCC 33591 assessed as growth inhibition after 16 to 20 hr by Alamar blue assay; format: functional, organism-based
[4] = system: Nakaseomyces glabratus; experiment: Antifungal activity against Candida glabrata ATCC 90030 assessed as growth inhibition after 46 to 50 hr by CLSI broth dilution method; format: functional
[5] = system: Aspergillus fumigatus; experiment: Antifungal activity against Aspergillus fumigatus ATCC 204305 assessed as growth inhibition after 46 to 50 hr by CLSI broth dilution method; format: functional
[6] = system: Candida albicans; experiment: Antifungal activity against Candida albicans ATCC 90028 assessed as growth inhibition after 46 to 50 hr by Alamar blue assay; format: functional, organism-based
[7] = system: Cryptococcus neoformans; experiment: Antifungal activity against Cryptococcus neoformans ATCC 90113 assessed as growth inhibition after 70 to 74 hr by CLSI broth dilution method; format: functional
[8] = system: Cryptococcus neoformans; experiment: Antifungal activity against Cryptococcus neoformans ATCC 90113 assessed as growth inhibition after 70 to 74 hr by Alamar blue assay; format: functional, organism-based
[9] = system: Escherichia coli; experiment: Antibacterial activity against Escherichia coli ATCC 35218 assessed as growth inhibition after 16 to 20 hr by optical density measurement
[10] = system: Staphylococcus aureus; experiment: Antibacterial activity against methicillin-resistant Staphylococcus aureus ATCC 33591 assessed as growth inhibition after 16 to 20 hr by CLSI broth dilution method; format: functional
[11] = system: Escherichia coli; experiment: Antibacterial activity against Escherichia coli ATCC 35218 assessed as growth inhibition after 16 to 20 hr by CLSI broth dilution method; format: functional
[12] = system: Aspergillus fumigatus; experiment: Antifungal activity against Aspergillus fumigatus ATCC 204305 assessed as growth inhibition after 46 to 50 hr by Alamar blue assay; format: functional, organism-based
[13] = system: Staphylococcus aureus; experiment: Antibacterial activity against Staphylococcus aureus ATCC 29213 assessed as growth inhibition after 16 to 20 hr by Alamar blue assay; format: functional, organism-based
[14] = system: Nakaseomyces glabratus; experiment: Antifungal activity against Candida glabrata ATCC 90030 assessed as growth inhibition after 46 to 50 hr by optical density measurement
[15] = system: Mycobacterium intracellulare; experiment: Antibacterial activity against Mycobacterium intracellulare ATCC 23068 assessed as growth inhibition after 70 to 74 hr by CLSI broth dilution method; format: functional
[16] = system: Pichia kudriavzevii; experiment: Antifungal activity against Pichia kudriavzevii ATCC 6258 assessed as growth inhibition after 46 to 50 hr by CLSI broth dilution method; format: functional
[17] = system: Pseudomonas aeruginosa; experiment: Antibacterial activity against Pseudomonas aeruginosa ATCC 27853 assessed as growth inhibition after 16 to 20 hr by CLSI broth dilution method; format: functional
[18] = system: Mycobacterium intracellulare; experiment: Antibacterial activity against Mycobacterium intracellulare ATCC 23068 assessed as growth inhibition after 70 to 74 hr by Alamar blue assay; format: functional, organism-based
[19] = system: Pseudomonas aeruginosa; experiment: Antibacterial activity against Pseudomonas aeruginosa ATCC 27853 assessed as growth inhibition after 16 to 20 hr by optical density measurement
[20] = system: Staphylococcus aureus; experiment: Antibacterial activity against Staphylococcus aureus ATCC 29213 assessed as growth inhibition after 16 to 20 hr by CLSI broth dilution method; format: functional
[21] = system: Escherichia coli; experiment: Antibacterial activity against Escherichia coli ATCC 35218 assessed as growth inhibition after 16 to 20 hr by optical density method

Compound	IC50 [1]	MIC [2]	IC50 [3]	MIC [4]	MIC [5]	IC50 [6]	MIC [7]	IC50 [8]	IC50 [9]	MIC [10]	MIC [11]	IC50 [12]	IC50 [13]	IC50 [14]	MIC [15]	MIC [16]	MIC [17]	IC50 [18]	IC50 [19]	MIC [20]	further results
CC(C)c1ccc(C2(c3ccc(O)c(O)c3)OC(=O)c3ccccc32)cc1 (configuration not stated)	15.5 µg/mL (≈ 42.9 µM)	> 200 µg/mL	6.81 µg/mL (≈ 18.9 µM)	200 µg/mL (≈ 555 µM)	> 200 µg/mL	172 µg/mL (≈ 478 µM)	> 200 µg/mL	137 µg/mL (≈ 381 µM)	> 200 µg/mL	12.5 µg/mL (≈ 34.7 µM)	> 200 µg/mL	53.2 µg/mL (≈ 148 µM)	4.96 µg/mL (≈ 13.8 µM)	45.8 µg/mL (≈ 127 µM)	> 200 µg/mL	> 200 µg/mL	> 200 µg/mL	> 200 µg/mL	61 µg/mL (≈ 169 µM)	18.8 µg/mL (≈ 52 µM)	–
CC(C)c1ccc(C2(c3ccc(O)c(O)c3)OC(=O)c3ccccc32)cc1[N+](=O)[O-] (configuration not stated)	> 200 µg/mL	> 100 µg/mL	27.8 µg/mL (≈ 68.5 µM)	> 100 µg/mL	> 100 µg/mL	> 200 µg/mL	> 100 µg/mL	> 200 µg/mL	> 200 µg/mL	50 µg/mL (≈ 123 µM)	> 200 µg/mL	> 200 µg/mL	26.4 µg/mL (≈ 65 µM)	76.3 µg/mL (≈ 188 µM)	> 200 µg/mL	> 100 µg/mL	> 200 µg/mL	> 200 µg/mL	> 200 µg/mL	50 µg/mL (≈ 123 µM)	–
CC(C)c1ccc(C2(c3ccc(O)c(O)c3O)OC(=O)c3ccccc32)cc1 (configuration not stated)	25.5 µg/mL (≈ 67.7 µM)	> 200 µg/mL	18.8 µg/mL (≈ 49.9 µM)	> 200 µg/mL	> 200 µg/mL	65 µg/mL (≈ 173 µM)	> 200 µg/mL	> 200 µg/mL	–	25 µg/mL (≈ 66.4 µM)	> 200 µg/mL	> 200 µg/mL	18.4 µg/mL (≈ 49 µM)	17.5 µg/mL (≈ 46.5 µM)	> 200 µg/mL	> 200 µg/mL	> 200 µg/mL	> 200 µg/mL	116 µg/mL (≈ 309 µM)	25 µg/mL (≈ 66.4 µM)	IC50 [21]: 170 µg/mL (≈ 451 µM)
C[C@@H]1[C@H](O)[C@@H](C)/C=C/C=C/C=C/C=C/C=C/C=C/C=C/[C@H](O[C@@H]2O[C@H](C)[C@@H](O)[C@H](N)[C@@H]2O)C[C@@H]2O[C@](O)(C[C@@H](O)C[C@@H](O)[C@H](O)CC[C@@H](O)C[C@@H](O)CC(=O)O[C@H]1C)C[C@H](O)[C@H]2C(=O)O [AMPHOTERICIN B]	0.56 µg/mL (≈ 0.606 µM)	0.52 µg/mL (≈ 0.563 µM)	–	0.63 µg/mL (≈ 0.682 µM)	1.25 µg/mL (≈ 1.35 µM)	0.2 µg/mL (≈ 0.216 µM)	0.63 µg/mL (≈ 0.682 µM)	0.32 µg/mL (≈ 0.346 µM)	–	–	–	0.67 µg/mL (≈ 0.725 µM)	–	0.28 µg/mL (≈ 0.303 µM)	–	1.25 µg/mL (≈ 1.35 µM)	–	–	–	–	–
CC(C)c1ccc(C2(c3ccc(O)c(O)c3O)OC(=O)c3ccccc32)cc1[N+](=O)[O-] (configuration not stated)	88.7 µg/mL (≈ 210 µM)	> 200 µg/mL	45.7 µg/mL (≈ 108 µM)	83.3 µg/mL (≈ 198 µM)	> 200 µg/mL	98.9 µg/mL (≈ 235 µM)	> 200 µg/mL	> 200 µg/mL	> 200 µg/mL	133 µg/mL (≈ 316 µM)	> 200 µg/mL	> 200 µg/mL	42.3 µg/mL (≈ 100 µM)	21.3 µg/mL (≈ 50.6 µM)	> 200 µg/mL	> 200 µg/mL	> 200 µg/mL	> 200 µg/mL	163 µg/mL (≈ 386 µM)	100 µg/mL (≈ 237 µM)	–
O=C(O)c1cn(C2CC2)c2cc(N3CCNCC3)c(F)cc2c1=O [CIPROFLOXACIN]	–	–	–	–	–	–	–	–	0.005 µg/mL (≈ 0.0151 µM)	–	–	–	–	–	–	–	–	0.32 µg/mL (≈ 0.966 µM)	–	–	–
